# Test system: FOXC2-expressing HMLER cells
# Experiment: Cell Titer Glo viability of FOXC2-HMLER cells (high throughput screen and 10-point response)
# Assay type: cell-based
# Details: Homo sapiens; scored relative to parent compound 1; 72 hours; read-out: Activity Score, inhibition of FOXC2-expressing HMLER cells by Formula I compounds
# Description: For high throughput screening, FOXC2-HMLER and HMLER cells were plated at 10^3 cells per well in white 384-well plates in 50 μL of MEGM medium (Lonza). Cells were allowed to attach for one hour before compound was transferred to each well as a DMSO solution using a 100 nL pintool head affixed to a PerkinElmer FX instrument. After 72-hour incubation, 30 μL of a Cell Titer Glo solution (diluted 1:6 in water, Promega) was dispensed into each well and luminance values were recorded using an Envision plate reader. […] All other miniaturized, selective viability experiments were performed as above using the indicated growth medium.
# More specifically, in the high throughput screening assay above, each cell line was plated at 1,000 cells per well in 384-well plates, treated for 72 hours with 2 μM of test compound, and the viability of each line was determined in parallel by Cell Titer Glo (Promega) luminance measurements.
row,Compound,IC50
1,CC1CC(C)CN(c2cnnc3c(Cl)cccc23)C1 (stereo not drawn) [Compound 1A],1 to 20 µM
2,Cc1ccc(-c2cc3c(N4CCN(c5ccccc5)CC4)nccn3n2)cc1C [Compound 1B],1 to 20 µM
3,Cc1ccc(N2CCN(c3nccn4nc(-c5ccccc5)cc34)CC2)cc1 [Compound 1C],1 to 20 µM
4,Clc1cccc(N2CCN(c3cnc4ccccc4n3)CC2)c1 [Compound 1D],1 to 20 µM
5,Clc1ccc(N2CCN(c3ccccc3Cl)CC2)nn1 [Compound 1E],> 20 µM
6,COc1ccc(N2CCN(c3nccn4nc(-c5ccc(Cl)cc5)cc34)CC2)cc1 [Compound 1F],> 20 µM
7,Clc1ccc2c(N3CCNCC3)ccnc2c1 [Compound 1G],> 20 µM
8,Clc1ccc(N2CCN(c3cnnc4c(Cl)cccc34)CC2)cc1Cl [Compound 1SRAA],1 to 20 µM
9,Clc1ccc(Cl)c(N2CCN(c3cnnc4c(Cl)cccc34)CC2)c1 [Compound 1SRAB],1 to 20 µM
10,FC(F)(F)Oc1cccc(N2CCN(c3cnnc4c(Cl)cccc34)CC2)c1 [Compound 1SRAC],1 to 20 µM
11,Clc1cccc(N2CCN(c3cnnc4c(Cl)cccc34)CC2)n1 [Compound 1SRAD],1 to 20 µM
12,Clc1nccc(N2CCN(c3cnnc4c(Cl)cccc34)CC2)n1 [Compound 1SRAE],> 20 µM
13,Clc1cncc(N2CCN(c3cnnc4c(Cl)cccc34)CC2)n1 [Compound 1SRAF],> 20 µM
14,Fc1cc(Cl)cc(N2CCN(c3cnnc4c(Cl)cccc34)CC2)c1 [Compound 1SRAG],< 1 µM
15,COc1cc(Cl)cc(N2CCN(c3cnnc4c(Cl)cccc34)CC2)c1 [Compound 1SRAH],< 0.234 µM
16,Cc1cc(Cl)cc(N2CCN(c3cnnc4c(Cl)cccc34)CC2)c1 [Compound 1SRAI],< 1 µM
17,FC(F)(F)c1cc(Cl)cc(N2CCN(c3cnnc4c(Cl)cccc34)CC2)c1 [Compound 1SRAJ],1 to 20 µM
18,N#Cc1cc(Cl)cc(N2CCN(c3cnnc4c(Cl)cccc34)CC2)c1 [Compound 1SRAK],< 1 µM
19,Cc1c(Cl)cc(N2CCN(c3cnnc4c(Cl)cccc34)CC2)cc1Cl [Compound 1SRAL],1 to 20 µM

row,Compound,IC50
1,Cc1c(S(=O)(=O)N2CCN(c3cnnc4c(Cl)cccc34)CC2)cnn1C(F)F [Compound 1SRAM],> 20 µM
2,Clc1cc(Cl)cc(N2C[C@@H]3C[C@H]2CN3c2cnnc3c(Cl)cccc23)c1 [Compound 1SRAN],< 1 µM
3,Clc1cc(Cl)cc(N2CCN(c3cnnc4c(Cl)cccc34)CC2)c1 [Compound 1SRH],< 0.234 µM
4,Fc1c(Cl)cc(N2CCN(c3cnnc4c(Cl)cccc34)CC2)cc1Cl [Compound 1SRI],1 to 20 µM
5,Fc1ccc(N2CCN(c3cnnc4c(Cl)cccc34)CC2)cc1Cl [Compound 1SRJ],1 to 20 µM
6,Fc1c(Cl)cccc1N1CCN(c2cnnc3c(Cl)cccc23)CC1 [Compound 1SRK],1 to 20 µM
7,CC1CN(c2cc(Cl)cc(Cl)c2)CCN1c1cnnc2c(Cl)cccc12 (stereo not drawn) [Compound 1SRL],< 1 µM
8,CC1CN(c2cnnc3c(Cl)cccc23)CCN1c1cc(Cl)cc(Cl)c1 (stereo not drawn) [Compound 1SRM],< 1 µM
9,Clc1cc(Cl)cc(N2CCN(c3cnnc4ccccc34)CC2)c1 [Compound 1SRN],< 1 µM
10,Fc1cccc(N2CCN(c3cnnc4c(Cl)cccc34)CC2)c1 [Compound 1SRO],1 to 20 µM
11,FC(F)(F)c1cccc(N2CCN(c3cnnc4c(Cl)cccc34)CC2)c1 [Compound 1SRP],1 to 20 µM
12,FC(F)(F)Sc1cccc(N2CCN(c3cnnc4c(Cl)cccc34)CC2)c1 [Compound 1SRQ],1 to 20 µM
13,COc1cccc(N2CCN(c3cnnc4c(Cl)cccc34)CC2)c1 [Compound 1SRT],< 1 µM
14,NC(=O)c1cccc(N2CCN(c3cnnc4c(Cl)cccc34)CC2)c1 [Compound 1SRV],1 to 20 µM
15,Clc1ccccc1N1CCN(c2cnnc3c(Cl)cccc23)CC1 [Compound 1SRW],1 to 20 µM
16,Clc1cccc2c(N3CCN(c4ccccc4)CC3)cnnc12 [Compound 1SRX],> 20 µM
17,Clc1ccc(N2CCN(c3cnnc4c(Cl)cccc34)CC2)cc1 [Compound 1SRY],> 20 µM
18,Clc1cccc(N2CCN(c3cnnc4c(Cl)cccc34)CC2)c1Cl [Compound 1SRZ],> 20 µM

# Same assay, conditions: Homo sapiens; scored relative to parent compound 2; 72 hours; read-out: Activity Score, inhibition of FOXC2-expressing HMLER cells by Formula II compounds
row,Compound,IC50
1,COc1ccc(NCc2cc3cc4c(cc3n(CC(=O)Nc3ccccc3)c2=O)OCCO4)cc1 [Compound 2AA],1 to 20 µM
2,COc1cc2cc(CNc3ccc(C)cc3)c(=O)n(CC(=O)Nc3cc(C)ccc3C)c2cc1OC [Compound 2AB],1 to 20 µM
3,COc1ccc2cc(CNc3ccc(C)cc3)c(=O)n(CC(=O)Nc3ccc(C)cc3C)c2c1 [Compound 2AC],1 to 20 µM
4,CCc1ccccc1NC(=O)Cn1c(=O)c(CNc2ccccc2)cc2cc3c(cc21)OCCO3 [Compound 2AD],1 to 20 µM
5,CCc1ccc(NC(=O)Cn2c(=O)c(CNc3ccccc3)cc3cc4c(cc32)OCCO4)cc1 [Compound 2AE],1 to 20 µM
6,CCc1ccccc1NC(=O)Cn1c(=O)c(CNc2ccc(C)cc2)cc2cc3c(cc21)OCCO3 [Compound 2AF],1 to 20 µM
7,CCOc1ccccc1NC(=O)Cn1c(=O)c(CNc2ccccc2)cc2ccc(OC)cc21 [Compound 2AG],1 to 20 µM
8,COc1ccc2cc(CNc3ccc(C)cc3)c(=O)n(CC(=O)Nc3ccc(F)cc3)c2c1 [Compound 2AH],1 to 20 µM
9,CCc1ccccc1NC(=O)Cn1c(=O)c(CNc2ccc(OC)cc2)cc2cc3c(cc21)OCCO3 [Compound 2AI],1 to 20 µM
10,COc1ccc(NCc2cc3ccc(C)cc3n(CC(=O)Nc3ccccc3C)c2=O)cc1OC [Compound 2AJ],1 to 20 µM
11,Cc1ccc(NCc2cc3cc4c(cc3n(CC(=O)Nc3ccccc3C)c2=O)OCCO4)cc1 [Compound 2AK],1 to 20 µM
12,CCc1ccc(NCc2cc3cc4c(cc3n(CC(=O)Nc3ccc(OC)cc3)c2=O)OCCO4)cc1 [Compound 2AL],1 to 20 µM
13,Cc1ccc(NCc2cc3cc4c(cc3n(CC(=O)Nc3c(C)cccc3C)c2=O)OCCO4)cc1 [Compound 2AM],1 to 20 µM
14,CCc1ccc(NCc2cc3ccc(OC)cc3n(CC(=O)Nc3cc(C)ccc3C)c2=O)cc1 [Compound 2AN],1 to 20 µM
15,CCc1ccc(NCc2cc3ccc(OC)cc3n(CC(=O)Nc3c(C)cc(C)cc3C)c2=O)cc1 [Compound 2AO],1 to 20 µM
16,CCc1ccc(NCc2cc3ccc(OC)cc3n(CC(=O)Nc3ccccc3CC)c2=O)cc1 [Compound 2AP],1 to 20 µM
17,CCOC(=O)c1ccc(NC(=O)Cn2c(=O)c(CNc3ccccc3)cc3ccc(OC)cc32)cc1 [Compound 2AQ],> 20 µM
18,COc1ccc2cc(CNc3ccccc3)c(=O)n(CC(=O)NCc3ccc(Cl)cc3)c2c1 [Compound 2AR],> 20 µM
19,CCc1ccc(NCc2cc3cc(OC)c(OC)cc3n(CC(=O)Nc3ccc(CC)cc3)c2=O)cc1 [Compound 2AS],> 20 µM
20,COc1ccc(NCc2cc3ccc(OC)cc3n(CC(=O)Nc3ccccc3F)c2=O)cc1 [Compound 2AT],> 20 µM
21,COc1ccc2cc(CNc3ccccc3)c(=O)n(CC(=O)NCc3ccccc3)c2c1 [Compound 2AU],> 20 µM

row,Compound,IC50
1,COc1ccc(NCc2cc3ccc(OC)cc3n(CC(=O)Nc3ccc(C(C)C)cc3)c2=O)cc1 [Compound 2AV],> 20 µM
2,COc1ccc2cc(CNc3ccc(OC)c(OC)c3)c(=O)n(CC(=O)Nc3ccccc3C)c2c1 [Compound 2AW],> 20 µM
3,COc1ccc2cc(CNc3ccccc3)c(=O)n(CC(=O)NCCc3ccccc3)c2c1 [Compound 2AX],> 20 µM
4,COc1ccc2cc(CNc3ccc(C)cc3)c(=O)n(CC(=O)Nc3ccc(C)cc3)c2c1 [Compound 2AY],> 20 µM
5,COc1ccc(NCc2cc3ccc(OC)cc3n(CC(=O)Nc3ccccc3)c2=O)cc1 [Compound 2AZ],> 20 µM
6,CCc1ccc(NCc2cc3cc4c(cc3n(CC(=O)Nc3c(C)cccc3C)c2=O)OCCO4)cc1 [Compound 2A],< 1 µM
7,COc1ccc2cc(CNc3ccccc3)c(=O)n(CC(=O)Nc3ccc(C)cc3Cl)c2c1 [Compound 2BA],> 20 µM
8,COc1cccc(CNC(=O)Cn2c(=O)c(CNc3ccccc3)cc3ccc(OC)cc32)c1 [Compound 2BB],> 20 µM
9,COc1ccc2cc(CNc3ccccc3)c(=O)n(CC(=O)Nc3c(C)cc(C)cc3C)c2c1 [Compound 2BC],> 20 µM
10,COc1ccc(NCc2cc3cc(OC)c(OC)cc3n(CC(=O)Nc3ccc(C)cc3)c2=O)cc1 [Compound 2BD],> 20 µM
11,COc1ccc2c(c1)cc(CNc1ccc(OC)c(OC)c1)c(=O)n2CC(=O)Nc1ccccc1C [Compound 2BE],> 20 µM
12,CC(=O)c1cccc(NC(=O)Cn2c(=O)c(CNc3ccc(C)cc3)cc3cc4c(cc32)OCCO4)c1 [Compound 2BF],> 20 µM
13,CCOC(=O)c1cccc(NC(=O)Cn2c(=O)c(CNc3ccccc3)cc3ccc(OC)cc32)c1 [Compound 2BG],> 20 µM
14,COc1ccc2cc(CNc3ccccc3)c(=O)n(CC(=O)Nc3ccc(F)cc3)c2c1 [Compound 2BH],> 20 µM
15,COc1ccc(CNC(=O)Cn2c(=O)c(CNc3ccccc3)cc3ccc(OC)cc32)cc1 [Compound 2BI],> 20 µM
16,COc1ccc2cc(CNc3ccc(C)cc3)c(=O)n(CC(=O)Nc3cc(C)cc(C)c3)c2c1 [Compound 2BJ],> 20 µM
17,COc1ccc(NCc2cc3ccc(OC)cc3n(CC(=O)Nc3ccc(F)cc3)c2=O)cc1 [Compound 2BK],> 20 µM
18,CCc1ccccc1NC(=O)Cn1c(=O)c(CNc2ccccc2)cc2ccc(OC)cc21 [Compound 2BL],> 20 µM
19,COc1ccc(NCc2cc3ccc(C)cc3n(CC(=O)Nc3cccc(C)c3)c2=O)cc1OC [Compound 2BM],> 20 µM
20,CCc1ccc(NC(=O)Cn2c(=O)c(CNc3ccccc3)cc3ccc(OC)cc32)cc1 [Compound 2BN],> 20 µM

# Reference: patent US11759461B2, “Small molecule inhibitors of cancer stem cells and mesenchymal cancer types” (The Scripps Research Institute, priority 2017, dated 2023)
